# Source: patent US20240207274A1, “Larotrectinib and moderate CYP3A4 inducer” (Bayer Consumer Care AG, priority 2022, published 2024)
# Entries after “also recorded” stand apart in the source; their conditions may differ. Read-outs that look alike come from different tables or passages of the source.
# Key:
# Transporter Systems = settings: substrate of the transporter named in the cell; FDA list; cited from earlier work
# CYP3A4 [1] = settings: classification of the drugs included in the PBPK study; cited from earlier work
# CYP3A4 [2] = settings: cited from earlier work
# CYP Enzymes = settings: moderate inducer of the CYP named in the cell; FDA list filtered for moderate CYP3A4 inducers; cenobamate classification based on 200 mg daily dose; cited from earlier work
# [3] = Observed plasma concentrations of larotrectinib, single oral dose 100 mg alone and with itraconazole or rifampicin; format: in vivo, human; settings: for Ratio AUC / Ratio Cmax: Observed, single oral dose 100 mg larotrectinib
# CYP3A4 [4] = biological target: CYP3A4 (Homo sapiens, UniProt P08684); settings: following oral administration; cited from earlier work
# [5] = plus itraconazole (200 mg QD, 5th day of 7) / control, healthy subjects
# [6] = plus rifampicin (600 mg QD, 10th day of 11) / control
# [7] = coadministration of larotrectinib with rifampicin 600 mg QD
# Sequence of CYP3A4 (Homo sapiens, UniProt P08684) (P08684 whole entry): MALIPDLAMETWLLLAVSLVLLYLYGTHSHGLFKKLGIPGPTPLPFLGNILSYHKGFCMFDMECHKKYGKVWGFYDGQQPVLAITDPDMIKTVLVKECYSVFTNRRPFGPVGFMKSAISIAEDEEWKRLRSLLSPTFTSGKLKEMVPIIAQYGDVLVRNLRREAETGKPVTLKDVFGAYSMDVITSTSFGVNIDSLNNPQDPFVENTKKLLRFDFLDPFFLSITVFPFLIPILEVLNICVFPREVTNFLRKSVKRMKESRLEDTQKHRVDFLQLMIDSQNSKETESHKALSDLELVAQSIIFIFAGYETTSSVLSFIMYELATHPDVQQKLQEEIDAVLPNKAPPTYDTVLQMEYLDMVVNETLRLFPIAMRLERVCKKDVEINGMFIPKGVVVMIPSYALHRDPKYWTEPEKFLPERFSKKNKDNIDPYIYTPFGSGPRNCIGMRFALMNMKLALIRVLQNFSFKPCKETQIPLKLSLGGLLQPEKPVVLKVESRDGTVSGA
compound,measurement,setting,value
COc1ccccc1Oc1c(NS(=O)(=O)c2ccc(C(C)(C)C)cc2)nc(-c2ncccn2)nc1OCCO [bosentan],TRNSP SUB,Transporter Systems,OATP1B1;; also recorded: OATP1B3
CCC(C)n1ncn(-c2ccc(N3CCN(c4ccc(OCC5COC(Cn6cncn6)(c6ccc(Cl)cc6Cl)O5)cc4)CC3)cc2)c1=O (centres unmarked) [Itraconazole],CYP3A4 Effect,CYP3A4 [1],Strong CYP3A4 inhibitor
O=C1Nc2ccc(Cl)cc2[C@@](C#CC2CC2)(C(F)(F)F)O1 [efavirenz],CYP3A4 Effect,CYP3A4 [1],Moderate CYP3A4 induced
CCC1(c2ccccc2)C(=O)NC(=O)NC1=O [phenobarbital],classification as CYP3A4 inducer,CYP3A4 [2]; listed by FDA,moderate inducer
same,classification as CYP3A4 inducer,CYP3A4 [2]; listed by a leading clinical support website (UpToDate),strong inducer
NC(=O)O[C@@H](Cn1ncnn1)c1ccccc1Cl [cenobamate],CYP Mod IND,CYP Enzymes,CYP3A4
O=C(Nc1cnn2ccc(N3CCC[C@@H]3c3cc(F)ccc3F)nc12)N1CC[C@H](O)C1 [larotrectinib],Ratio AUC,[3]; [5],4.31
same,Ratio Cmax,[3]; [5],2.81
same,Ratio AUC,[3]; [6],0.19
same,Ratio Cmax,[3]; [6],0.29
same,"observed reduction in exposure, AUC",[3]; [7],81%
same,"observed reduction in exposure, Cmax",[3]; [7],71%
same,metabolism,CYP3A4 [4],metabolized by CYP3A4
OC(Cn1cncn1)(Cn1cncn1)c1ccc(F)cc1F [Fluconazole],CYP3A4 Effect,CYP3A4 [1],Moderate CYP3A4 inhibitor
